Data reported in ChEMBL document CHEMBL1124269, “1,3-Diamino-6,7-dimethoxyisoquinoline derivatives as potential alpha 1-adrenoceptor antagonists” (J Med Chem, 1988).

Key:
[1] = Ionization constant of the compound
[2] = target: T1, Adrenergic receptor alpha-2 (Rattus norvegicus, UniProt P22086+P19328+P22909); assay: Binding affinity to alpha-2 adrenergic receptor by displacement of [3H]clonidine; format: protein assay
T1 sequence (P22086 whole entry): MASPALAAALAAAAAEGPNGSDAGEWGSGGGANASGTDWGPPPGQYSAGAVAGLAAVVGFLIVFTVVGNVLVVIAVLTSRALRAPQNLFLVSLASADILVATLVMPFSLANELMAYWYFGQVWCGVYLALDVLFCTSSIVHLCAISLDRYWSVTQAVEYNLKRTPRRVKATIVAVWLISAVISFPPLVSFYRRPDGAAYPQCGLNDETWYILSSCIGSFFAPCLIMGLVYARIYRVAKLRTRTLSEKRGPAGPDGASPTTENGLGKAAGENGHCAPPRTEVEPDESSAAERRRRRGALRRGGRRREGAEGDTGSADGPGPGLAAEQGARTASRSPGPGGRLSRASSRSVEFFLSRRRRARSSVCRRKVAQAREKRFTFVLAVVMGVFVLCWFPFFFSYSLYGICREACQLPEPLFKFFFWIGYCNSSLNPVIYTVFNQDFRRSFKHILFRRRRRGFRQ
T1 sequence (P19328 whole entry): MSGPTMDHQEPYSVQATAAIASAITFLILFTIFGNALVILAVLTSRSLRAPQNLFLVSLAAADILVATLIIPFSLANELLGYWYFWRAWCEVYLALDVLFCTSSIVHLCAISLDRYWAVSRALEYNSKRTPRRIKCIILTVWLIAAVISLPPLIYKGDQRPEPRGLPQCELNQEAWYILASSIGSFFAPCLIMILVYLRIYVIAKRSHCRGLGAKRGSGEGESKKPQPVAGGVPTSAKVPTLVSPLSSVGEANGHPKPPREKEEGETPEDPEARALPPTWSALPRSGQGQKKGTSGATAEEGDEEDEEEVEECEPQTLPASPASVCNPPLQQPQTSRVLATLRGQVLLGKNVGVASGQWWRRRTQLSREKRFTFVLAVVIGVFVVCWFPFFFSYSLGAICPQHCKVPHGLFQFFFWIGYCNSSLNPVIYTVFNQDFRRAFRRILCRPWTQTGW
T1 sequence (P22909 whole entry): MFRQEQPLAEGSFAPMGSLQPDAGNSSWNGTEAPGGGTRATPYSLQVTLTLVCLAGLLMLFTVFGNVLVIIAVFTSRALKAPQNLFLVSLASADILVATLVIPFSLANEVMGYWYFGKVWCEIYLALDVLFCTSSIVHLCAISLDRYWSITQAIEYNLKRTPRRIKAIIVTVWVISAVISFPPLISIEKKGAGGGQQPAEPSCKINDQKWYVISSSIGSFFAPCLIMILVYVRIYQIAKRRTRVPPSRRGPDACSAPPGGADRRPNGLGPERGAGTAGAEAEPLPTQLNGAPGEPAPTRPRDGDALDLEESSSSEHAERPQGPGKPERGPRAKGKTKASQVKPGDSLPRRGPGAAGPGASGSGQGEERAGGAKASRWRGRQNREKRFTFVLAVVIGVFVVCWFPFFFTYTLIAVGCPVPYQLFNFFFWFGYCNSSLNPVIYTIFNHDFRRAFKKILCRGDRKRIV

[3] = target: T2, Adrenergic receptor alpha-1 (Rattus norvegicus, UniProt P15823+P23944+P43140); assay: Binding affinity to Alpha-1 adrenergic receptor by displacement of [3H]prazosin; format: protein assay
T2 sequence (P15823 whole entry): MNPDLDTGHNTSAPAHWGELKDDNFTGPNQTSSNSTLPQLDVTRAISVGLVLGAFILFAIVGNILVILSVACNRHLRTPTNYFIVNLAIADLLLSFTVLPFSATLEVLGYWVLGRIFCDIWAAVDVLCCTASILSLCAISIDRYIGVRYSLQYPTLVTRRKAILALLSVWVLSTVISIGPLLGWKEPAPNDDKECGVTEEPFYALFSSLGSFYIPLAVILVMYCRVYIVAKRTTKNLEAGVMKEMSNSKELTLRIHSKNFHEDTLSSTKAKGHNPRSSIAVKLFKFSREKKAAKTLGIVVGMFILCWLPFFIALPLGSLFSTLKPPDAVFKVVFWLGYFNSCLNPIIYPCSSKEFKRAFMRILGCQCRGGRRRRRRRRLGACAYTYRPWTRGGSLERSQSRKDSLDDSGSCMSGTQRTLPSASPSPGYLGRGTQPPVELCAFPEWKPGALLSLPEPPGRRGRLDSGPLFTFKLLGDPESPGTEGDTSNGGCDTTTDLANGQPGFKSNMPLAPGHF
T2 sequence (P23944 whole entry): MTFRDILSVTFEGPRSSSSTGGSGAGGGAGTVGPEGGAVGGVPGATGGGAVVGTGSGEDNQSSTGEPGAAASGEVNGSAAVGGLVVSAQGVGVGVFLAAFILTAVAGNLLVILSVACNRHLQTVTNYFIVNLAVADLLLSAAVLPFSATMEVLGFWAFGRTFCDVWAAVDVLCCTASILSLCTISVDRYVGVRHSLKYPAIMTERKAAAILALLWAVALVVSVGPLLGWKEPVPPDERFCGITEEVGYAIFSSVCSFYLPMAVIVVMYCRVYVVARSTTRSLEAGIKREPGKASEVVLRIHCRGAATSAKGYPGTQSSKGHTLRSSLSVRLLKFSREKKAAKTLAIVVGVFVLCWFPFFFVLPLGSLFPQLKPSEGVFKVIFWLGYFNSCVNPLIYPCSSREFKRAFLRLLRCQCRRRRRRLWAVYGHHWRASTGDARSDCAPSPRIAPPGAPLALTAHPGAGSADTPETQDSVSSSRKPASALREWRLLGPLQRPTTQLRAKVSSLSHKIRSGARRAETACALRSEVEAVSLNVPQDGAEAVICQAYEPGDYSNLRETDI
T2 sequence (P43140 whole entry): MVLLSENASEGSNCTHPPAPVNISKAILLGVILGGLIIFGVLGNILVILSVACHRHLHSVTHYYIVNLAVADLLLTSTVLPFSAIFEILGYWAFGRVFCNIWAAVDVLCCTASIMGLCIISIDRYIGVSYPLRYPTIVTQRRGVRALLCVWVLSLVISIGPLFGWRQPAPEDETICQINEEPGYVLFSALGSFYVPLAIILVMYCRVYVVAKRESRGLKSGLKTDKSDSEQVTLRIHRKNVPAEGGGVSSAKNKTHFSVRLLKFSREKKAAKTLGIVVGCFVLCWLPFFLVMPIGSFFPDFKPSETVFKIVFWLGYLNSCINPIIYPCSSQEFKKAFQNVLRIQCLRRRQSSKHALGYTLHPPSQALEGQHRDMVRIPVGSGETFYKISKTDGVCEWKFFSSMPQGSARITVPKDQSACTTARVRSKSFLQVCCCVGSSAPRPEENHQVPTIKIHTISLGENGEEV

Rattus norvegicus [4] = assay: Percent reduction of SHR (Spontaneous Hypertensive Rat) blood pressure at 4.5 hr at a dose 10 mg/kg peroral administration; format: functional; details: route oral
Rattus norvegicus [5] = assay: Percent reduction of SHR (Spontaneous Hypertensive Rat) blood pressure at 1 hr at a dose 10 mg/kg peroral administration; format: functional; details: route oral
Rattus norvegicus [6] = assay: Percent reduction of SHR (Spontaneous Hypertensive Rat) blood pressure at 1 hr at a dose 3 mg/kg peroral administration; details: route oral
Rattus norvegicus [7] = assay: Percent reduction of SHR (Spontaneous Hypertensive Rat) blood pressure at 4.5 hr at a dose 3 mg/kg peroral administration; details: route oral
Rattus norvegicus [8] = assay: Percent reduction of SHR (Spontaneous Hypertensive Rat) blood pressure at 1 hr at a dose 3 mg/kg peroral administration; format: functional; details: route oral
Rattus norvegicus [9] = assay: Percent reduction of SHR (Spontaneous Hypertensive Rat) blood pressure at 4.5 hr at a dose 3 mg/kg peroral administration; format: functional; details: route oral

For `COc1cc2cc(N(C)C)nc(N)c2cc1OC`, the pKa [1] was 7.1, the Ki [2] was >> 1 uM and the Ki [3] was >> 1 uM. It also gave a Reduction (Rattus norvegicus [4]) of 10% and a Reduction (Rattus norvegicus [5]) of 12%.
For `COc1cc2cc(N3CCCCC3)nc(N)c2cc1OC`, the Ki [2] was >> 1 uM, the Ki [3] was >> 1 uM and the Reduction (Rattus norvegicus [4]) was 11%. It also gave a Reduction (Rattus norvegicus [5]) of 15%.
For `COc1cc2nc(N(C)C)cc(N)c2cc1OC`, the pKa [1] was 9.3, the Ki [2] was > 1000 nM and the Ki ([3]; read-out: Ki) was 11.4 nM. It also gave a Reduction (Rattus norvegicus [6]) of 12% and a Reduction (Rattus norvegicus [7]) of 11%.
For `COc1cc2nc(N3CCN(C(=O)c4ccco4)CC3)nc(N)c2cc1OC` [PRAZOSIN], the pKa [1] was 6.8, the Reduction (Rattus norvegicus [8]) was 24% and the Reduction (Rattus norvegicus [9]) was 15%.
For `COc1cc2cc(N3CCN(C(=O)c4ccco4)CC3)nc(N)c2cc1OC`, the Ki ([3]; read-out: Ki) was 160 nM, the Reduction (Rattus norvegicus [4]) was 6% and the Reduction (Rattus norvegicus [5]) was 4%.
For `COc1cc2nc(N(C)C)nc(N)c2cc1OC`, the pKa [1] was 8.1, the Ki [2] was > 1000 nM and the Ki ([3]; read-out: Ki) was 4.1 nM.
